According to paper doi:10.1101/2021.09.30.462449v1 (biorxiv, 2021):

Experiments:
Assay in all cases: biochemical
PKMYT1 = PKMYT1 (Homo sapiens, UniProt Q99640); details: read-out: % inhibition mean (Lanthascreen)
MAP4K1 (HPK1) = MAP4K1 (HPK1) (Homo sapiens, UniProt Q92918); details: read-out: % inhibition mean (Lanthascreen)
TNIK = TNIK (Homo sapiens, UniProt Q9UKE5); details: read-out: % inhibition mean (Lanthascreen)
EPHA7 = EPHA7 (Homo sapiens, UniProt Q15375); details: read-out: % inhibition mean (Lanthascreen)
AAK1 = AAK1 (Homo sapiens, UniProt Q2M2I8); details: read-out: % inhibition mean (Lanthascreen)
FGFR3 K650M = FGFR3 K650M (Homo sapiens, UniProt P22607, K650M); details: read-out: % inhibition mean (Lanthascreen)
Sequence of FGFR3 K650M (P22607 whole entry K650M): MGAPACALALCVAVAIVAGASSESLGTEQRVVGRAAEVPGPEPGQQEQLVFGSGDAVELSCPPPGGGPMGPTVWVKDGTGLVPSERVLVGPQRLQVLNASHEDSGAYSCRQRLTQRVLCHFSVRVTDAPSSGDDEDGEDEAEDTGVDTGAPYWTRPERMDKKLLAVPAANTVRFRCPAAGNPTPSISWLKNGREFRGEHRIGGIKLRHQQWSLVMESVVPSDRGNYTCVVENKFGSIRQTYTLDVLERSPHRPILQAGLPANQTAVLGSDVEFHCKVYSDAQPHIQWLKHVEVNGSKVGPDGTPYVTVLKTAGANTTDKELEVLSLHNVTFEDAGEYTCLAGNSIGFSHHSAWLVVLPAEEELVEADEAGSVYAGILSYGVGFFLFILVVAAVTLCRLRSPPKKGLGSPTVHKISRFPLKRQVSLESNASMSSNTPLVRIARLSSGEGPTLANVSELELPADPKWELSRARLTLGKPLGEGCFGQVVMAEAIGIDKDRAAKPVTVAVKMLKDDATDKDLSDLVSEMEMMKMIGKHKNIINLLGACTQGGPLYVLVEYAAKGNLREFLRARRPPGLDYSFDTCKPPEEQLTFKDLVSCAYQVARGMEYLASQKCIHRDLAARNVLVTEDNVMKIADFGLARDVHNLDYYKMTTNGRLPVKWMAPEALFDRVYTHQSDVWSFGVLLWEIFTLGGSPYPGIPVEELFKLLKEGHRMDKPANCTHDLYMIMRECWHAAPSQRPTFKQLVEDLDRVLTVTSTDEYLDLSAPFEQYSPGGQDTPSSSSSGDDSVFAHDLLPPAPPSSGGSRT

TTK = TTK (Homo sapiens, UniProt P33981); details: read-out: % inhibition mean (Lanthascreen)
BMPR1B (ALK6) = BMPR1B (ALK6) (Homo sapiens, UniProt O00238); details: read-out: % inhibition mean (Lanthascreen)
Sequence of BMPR1B (ALK6) (O00238 whole entry): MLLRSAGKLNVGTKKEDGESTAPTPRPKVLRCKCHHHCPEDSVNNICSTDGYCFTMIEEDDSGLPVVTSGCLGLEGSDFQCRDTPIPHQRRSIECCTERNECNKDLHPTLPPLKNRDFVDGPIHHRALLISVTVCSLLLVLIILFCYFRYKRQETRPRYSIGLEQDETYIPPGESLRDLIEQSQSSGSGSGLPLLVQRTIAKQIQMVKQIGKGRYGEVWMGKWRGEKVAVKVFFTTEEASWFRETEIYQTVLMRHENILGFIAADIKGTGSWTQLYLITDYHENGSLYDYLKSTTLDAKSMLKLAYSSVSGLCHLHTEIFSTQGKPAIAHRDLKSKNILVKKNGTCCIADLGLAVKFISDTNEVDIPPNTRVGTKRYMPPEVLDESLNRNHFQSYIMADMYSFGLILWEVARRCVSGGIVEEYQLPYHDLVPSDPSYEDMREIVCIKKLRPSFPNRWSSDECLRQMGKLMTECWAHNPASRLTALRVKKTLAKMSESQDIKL

CDK2/cyclin A1 = CDK2/cyclin A1 (Homo sapiens, UniProt P24941); details: read-out: % inhibition mean (Lanthascreen)
AXL R499C = AXL R499C (Homo sapiens, UniProt P30530, R499C); details: read-out: % inhibition mean (Lanthascreen)
ALK R1275Q = ALK R1275Q (Homo sapiens, UniProt Q9UM73, R1275Q); details: read-out: % inhibition mean (Lanthascreen)
KIT Y823D = KIT Y823D (Homo sapiens, UniProt P10721, Y823D); details: read-out: % inhibition mean (Lanthascreen)
ABL1 M351T = ABL1 M351T (Homo sapiens, UniProt P00519, M351T); details: read-out: % inhibition mean (Lanthascreen)
KIT D820E = KIT D820E (Homo sapiens, UniProt P10721, D820E); details: read-out: % inhibition mean (Lanthascreen)
KIT V559D T670I = KIT V559D T670I (Homo sapiens, UniProt P10721, T670I/V559D); details: read-out: % inhibition mean (Lanthascreen)
PIK3C2G (PI3K-C2 gamma) = PIK3C2G (PI3K-C2 gamma) (Homo sapiens, UniProt O75747); details: read-out: % inhibition mean (Adapta)
PIK3C2B (PI3K-C2 beta) = PIK3C2B (PI3K-C2 beta) (Homo sapiens, UniProt O00750); details: read-out: % inhibition mean (Adapta)
[1] = target: PIK3CD/PIK3R1 (p110 delta/p85 alpha) (Homo sapiens, UniProt O00329); details: read-out: % inhibition mean (Adapta)
CDK7/cyclin H/MNAT1 = CDK7/cyclin H/MNAT1 (Homo sapiens, UniProt P50613); details: read-out: % inhibition mean (Adapta)
[2] = target: PIK3CA/PIK3R3 (p110 alpha/p55 gamma) (Homo sapiens, UniProt P42336); details: read-out: % inhibition mean (Adapta)
Sequence of PIK3CA/PIK3R3 (p110 alpha/p55 gamma) (P42336 whole entry): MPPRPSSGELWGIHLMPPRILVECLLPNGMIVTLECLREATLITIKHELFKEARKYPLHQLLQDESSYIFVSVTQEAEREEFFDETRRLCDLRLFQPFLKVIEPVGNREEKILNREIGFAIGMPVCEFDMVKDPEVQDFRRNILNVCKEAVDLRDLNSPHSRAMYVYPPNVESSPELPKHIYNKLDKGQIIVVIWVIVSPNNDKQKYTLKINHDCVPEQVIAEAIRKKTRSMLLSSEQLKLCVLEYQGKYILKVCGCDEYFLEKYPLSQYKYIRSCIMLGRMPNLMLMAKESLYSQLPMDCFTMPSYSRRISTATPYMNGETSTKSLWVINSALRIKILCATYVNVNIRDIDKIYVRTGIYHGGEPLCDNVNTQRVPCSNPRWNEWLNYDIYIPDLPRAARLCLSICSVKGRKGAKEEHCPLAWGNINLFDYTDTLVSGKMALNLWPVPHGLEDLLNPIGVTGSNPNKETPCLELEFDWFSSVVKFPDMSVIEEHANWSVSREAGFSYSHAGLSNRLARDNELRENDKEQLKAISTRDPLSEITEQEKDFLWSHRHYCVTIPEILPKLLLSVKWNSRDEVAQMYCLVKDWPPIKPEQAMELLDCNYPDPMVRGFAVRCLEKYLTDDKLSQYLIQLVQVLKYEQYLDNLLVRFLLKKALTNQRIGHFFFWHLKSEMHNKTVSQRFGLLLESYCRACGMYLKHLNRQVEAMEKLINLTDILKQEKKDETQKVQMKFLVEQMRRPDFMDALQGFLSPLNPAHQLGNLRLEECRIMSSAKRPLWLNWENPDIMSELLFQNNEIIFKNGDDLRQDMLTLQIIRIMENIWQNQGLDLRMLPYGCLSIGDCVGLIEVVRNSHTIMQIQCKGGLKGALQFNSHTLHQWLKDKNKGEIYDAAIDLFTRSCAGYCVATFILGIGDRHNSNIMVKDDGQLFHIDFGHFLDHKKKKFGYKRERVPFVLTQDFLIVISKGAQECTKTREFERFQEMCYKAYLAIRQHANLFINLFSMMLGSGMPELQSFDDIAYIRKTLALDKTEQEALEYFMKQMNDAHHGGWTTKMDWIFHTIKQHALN

NUAK1 (ARK5) = NUAK1 (ARK5) (Homo sapiens, UniProt O60285); details: read-out: % inhibition mean (Adapta)
IRAK1 = IRAK1 (Homo sapiens, UniProt P51617); details: read-out: % inhibition mean (Adapta)
Sequence of IRAK1 (P51617 whole entry): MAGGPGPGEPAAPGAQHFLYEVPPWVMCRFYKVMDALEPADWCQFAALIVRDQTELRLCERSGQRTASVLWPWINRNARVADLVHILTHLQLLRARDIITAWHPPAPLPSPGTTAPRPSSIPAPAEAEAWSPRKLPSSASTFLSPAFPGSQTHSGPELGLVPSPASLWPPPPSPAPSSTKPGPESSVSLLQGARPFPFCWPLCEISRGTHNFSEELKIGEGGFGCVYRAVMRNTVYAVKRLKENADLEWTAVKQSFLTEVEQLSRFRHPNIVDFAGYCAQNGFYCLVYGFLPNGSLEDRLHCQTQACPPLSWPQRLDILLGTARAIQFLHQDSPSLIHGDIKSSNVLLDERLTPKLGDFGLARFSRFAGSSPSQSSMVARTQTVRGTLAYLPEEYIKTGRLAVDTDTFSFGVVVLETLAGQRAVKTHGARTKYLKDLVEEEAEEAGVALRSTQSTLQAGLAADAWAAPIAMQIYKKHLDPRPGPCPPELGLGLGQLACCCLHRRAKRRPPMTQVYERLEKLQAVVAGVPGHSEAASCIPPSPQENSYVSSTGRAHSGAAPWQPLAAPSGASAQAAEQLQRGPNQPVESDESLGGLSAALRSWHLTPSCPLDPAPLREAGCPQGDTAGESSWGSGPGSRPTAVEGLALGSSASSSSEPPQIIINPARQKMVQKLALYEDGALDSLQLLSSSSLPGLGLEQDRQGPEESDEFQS

LRRK2 FL = LRRK2 FL (Homo sapiens, UniProt Q5S007); details: read-out: % inhibition mean (Adapta)
PI4KB (PI4K beta) = PI4KB (PI4K beta) (Homo sapiens, UniProt Q9UBF8); details: read-out: % inhibition mean (Adapta)
CDK4/cyclin D3 = CDK4/cyclin D3 (Homo sapiens, UniProt P11802); details: read-out: % inhibition mean (Adapta)
Sequence of CDK4/cyclin D3 (P11802 whole entry): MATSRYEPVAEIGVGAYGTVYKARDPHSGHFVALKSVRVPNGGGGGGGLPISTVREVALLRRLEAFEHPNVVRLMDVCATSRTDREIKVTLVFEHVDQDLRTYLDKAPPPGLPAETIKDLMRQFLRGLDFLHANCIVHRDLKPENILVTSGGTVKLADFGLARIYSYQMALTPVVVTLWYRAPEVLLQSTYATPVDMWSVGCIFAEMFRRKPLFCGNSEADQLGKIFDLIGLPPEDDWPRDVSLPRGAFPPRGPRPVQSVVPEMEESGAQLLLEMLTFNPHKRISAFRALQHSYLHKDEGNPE
Sequence of CDK4/cyclin D3 (P30281 whole entry partner): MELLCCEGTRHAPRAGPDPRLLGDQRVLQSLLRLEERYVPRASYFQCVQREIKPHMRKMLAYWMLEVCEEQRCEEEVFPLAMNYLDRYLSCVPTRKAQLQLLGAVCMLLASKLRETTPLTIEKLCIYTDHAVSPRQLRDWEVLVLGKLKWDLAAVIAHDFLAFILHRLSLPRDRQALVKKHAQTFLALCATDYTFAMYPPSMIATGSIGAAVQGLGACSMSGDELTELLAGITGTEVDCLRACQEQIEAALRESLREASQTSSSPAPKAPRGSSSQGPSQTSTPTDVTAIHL

PI4K2B (PI4K2 beta) = PI4K2B (PI4K2 beta) (Homo sapiens, UniProt Q8TCG2); details: read-out: % inhibition mean (Adapta)
Sequence of PI4K2B (PI4K2 beta) (Q8TCG2 whole entry): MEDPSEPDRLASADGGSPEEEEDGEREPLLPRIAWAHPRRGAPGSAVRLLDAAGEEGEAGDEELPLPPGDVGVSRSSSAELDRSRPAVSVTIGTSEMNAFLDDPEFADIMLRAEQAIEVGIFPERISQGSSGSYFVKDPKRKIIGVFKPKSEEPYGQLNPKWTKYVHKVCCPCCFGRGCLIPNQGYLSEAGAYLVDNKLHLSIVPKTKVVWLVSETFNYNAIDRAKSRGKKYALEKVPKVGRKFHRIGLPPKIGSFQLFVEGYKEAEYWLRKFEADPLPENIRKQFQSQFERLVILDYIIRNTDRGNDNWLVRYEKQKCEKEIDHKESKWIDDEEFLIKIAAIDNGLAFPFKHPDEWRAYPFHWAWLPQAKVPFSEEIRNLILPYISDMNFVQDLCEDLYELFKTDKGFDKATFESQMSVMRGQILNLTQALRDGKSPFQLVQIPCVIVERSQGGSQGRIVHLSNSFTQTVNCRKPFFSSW

SPHK1 = SPHK1 (Homo sapiens, UniProt Q9NYA1); details: read-out: % inhibition mean (Adapta)
Sequence of SPHK1 (Q9NYA1 whole entry): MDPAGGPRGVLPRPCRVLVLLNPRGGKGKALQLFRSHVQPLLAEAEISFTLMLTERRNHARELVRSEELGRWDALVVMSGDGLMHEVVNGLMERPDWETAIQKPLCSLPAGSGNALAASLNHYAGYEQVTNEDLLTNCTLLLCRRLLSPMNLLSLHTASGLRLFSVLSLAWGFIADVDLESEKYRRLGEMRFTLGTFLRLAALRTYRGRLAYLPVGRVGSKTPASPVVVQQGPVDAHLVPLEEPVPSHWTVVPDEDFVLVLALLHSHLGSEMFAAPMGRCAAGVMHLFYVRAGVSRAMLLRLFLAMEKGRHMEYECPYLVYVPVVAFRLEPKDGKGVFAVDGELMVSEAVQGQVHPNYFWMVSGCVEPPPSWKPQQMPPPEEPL

PI4KA (PI4K alpha) = PI4KA (PI4K alpha) (Homo sapiens, UniProt P42356); details: read-out: % inhibition mean (Adapta)

SMILES: COc1ccc2nc3cc(Cl)ccc3c(Nc3cc(CN4CCCC4)c(O)c(CN4CCCC4)c3)c2n1 [Pyronaridine, 4-[(7-Chloro-2-methoxybenzo[b][1,5]naphthyridin-10-yl)amino]-2,6-bis(1-pyrrolidinylmethyl)phenol phosphate (1:4)]
- inhibition at 1 µM (PKMYT1): 1%
- inhibition at 1 µM (MAP4K1 (HPK1)): 1%
- inhibition at 1 µM (TNIK): -1%
- inhibition at 1 µM (EPHA7): -3%
- inhibition at 1 µM (AAK1): 0%
- inhibition at 1 µM (FGFR3 K650M): -4%
- inhibition at 1 µM (TTK): 4%
- inhibition at 1 µM (BMPR1B (ALK6)): -3%
- inhibition at 1 µM (CDK2/cyclin A1): 5%
- inhibition at 1 µM (AXL R499C): 3%
- inhibition at 1 µM (ALK R1275Q): 6%
- inhibition at 1 µM (KIT Y823D): -4%
- inhibition at 1 µM (ABL1 M351T): 8%
- inhibition at 1 µM (KIT D820E): -4%
- inhibition at 1 µM (KIT V559D T670I): -10%
- inhibition at 1 µM (PIK3C2G (PI3K-C2 gamma)): 3%
- inhibition at 1 µM (PIK3C2B (PI3K-C2 beta)): -5%
- inhibition at 1 µM [1]: 9%
- inhibition at 1 µM (CDK7/cyclin H/MNAT1): -13%
- inhibition at 1 µM [2]: 1%
- inhibition at 1 µM (NUAK1 (ARK5)): 11%
- inhibition at 1 µM (IRAK1): -4%
- inhibition at 1 µM (LRRK2 FL): -4%
- inhibition at 1 µM (PI4KB (PI4K beta)): 5%
- inhibition at 1 µM (CDK4/cyclin D3): -6%
- inhibition at 1 µM (PI4K2B (PI4K2 beta)): 2%
- inhibition at 1 µM (SPHK1): 10%
- inhibition at 1 µM (PI4KA (PI4K alpha)): 0%
